According to patent publication US20110008465A1, “SESQUITERPENE FORMULATIONS, KITS AND METHODS OF USE THEREOF” (priority 2007, published 2011):

Assays:
[1] = test system: Panc 05.04 (pancreas cancer); experiment: Chou and Talalay combination assay with beta-caryophyllene; type: cell-based, Human; conditions: in combination with beta-caryophyllene in ethanol (40-150 mM), 48 h
Description: Agent: […] Each solution was prepared fresh and use within 1 hour after preparation. 5 μL of each test article were added to 1 mL of culture medium for a final concentration of 0.5% of solvent and this concentration have no toxic effect on cells. Cells: The Panc 05.04 cell line was used. Cells were harvested using trypsine-EDTA. […] Cells were plated in 96-well microplates (BD Falcon) at a density of 7.5×10^3 cells per well for Chou and Talalay assay in 100 μL of culture medium and were allowed to adhere for 24 hours before treatment. Proliferation assay: Increasing concentrations of the anticancer agents and/or beta-caryophyllene were added to 96-well plate (100 μL per well). The final concentration of solvent in the culture medium was maintained below 0.5% (volume/volume) to avoid solvent toxicity. […] The cells were incubated for 48 h at 37° C. and 5% CO2. Cytotoxicity was assessed using the resazurin reduction test (8). […] Resazurin was then removed. Data analysis: Results were analyzed using the Chou and Talalay method (9) and may be interpreted as follow: […]

[2] = test system: B16-F1 mouse skin melanoma
Description: Formulations: Two formulations were used for this study. The first one was prepared for groups treated with paclitaxel alone while the other one was prepared for the paclitaxel/caryophyllene combination (Table 5). […] These solutions were further diluted with 19 mL of a solution containing soya lecithin (2.85 mL), glycerol (0.95 mL) and polysorbate 80 (380 μL) in water (14.82 mL). Each solution was prepared fresh and used within 30 minutes after preparation (see Table 5 below for presenting formulations).
Mice: All the experiments were carried out using B6D2F1 male mice, 6-weeks old (Charles Rivers Inc., St-Constant, QC). They were handled and cared for in accordance with the Guide for the Care and Use of Laboratory Animals.
Cells (passages #7 to 21) were grown to 90% confluence in complete MEM medium containing Earle's salts and L-glutamine (Mediatech Cellgro, Va.), 10% fetal bovine serum (Hyclone), vitamins (1×), penicillin (100 I.U./mL) and streptomycin (100 μg/mL), essential amino acids (1×) and sodium pyruvate (1×) (Mediatech Cellgro, Va.). Cells were then harvested using 0.5% trypsin-EDTA (Mediatech Cellgro, Va.). Cells were counted using a hemacytometer and resuspended in MEM medium without SVF. 100 μL of a solution containing […] per well were inoculated subcutaneously in each mice.
Administration: To establish animal tumor models, 2.5×10^6 cells were resuspended in 100 μL of MEM medium without SVF (Mediatech Cellgro, Va.) and injected into the subcutaneous tissue of the right flank of the mice on day zero. […] Treatments by intravenous injections (tail vein) were performed on days 7, 10, 13.
Data analysis: Antitumor activity was evaluated according to two parameters as follows:
CTW values were averaged within each group during and after drug treatment over a period of 17 days post-tumor implant. […] Values of p<0.05 were considered statistically significant.

tumor cell lines = experiment: Comparative potentiating effect of beta-caryophyllene and Tesmilifene (DPPE) combined with 5 antitumor classes; type: cell-based
Description: Each solution was prepared fresh and use within 1 hour after preparation.
Cells were then harvested using trypsine-EDTA. Cells were counted using a hemocytometer and resuspended in DMEM+10% FBS medium.
Proliferation assay: Increasing concentrations of the anticancer agents and/or beta-caryophyllene were added to 96-well plate (100 μL per well). The final concentration of solvent in the culture medium was maintained below 0.5% (volume/volume) to avoid solvent toxicity.
The cells were incubated for 48 h at 37° C. and 5% CO2. Cytotoxicity was assessed using the resazurin reduction test (O'Brien et al., 2000). Fluorescence was measured on an automated 96-well Fluoroskan Ascent FI™ plate reader (Labsystems) using excitation and emission wavelengths of 530 nm and 590 nm, respectively. Resazurin was then removed.
Microplates were frozen at −20° C. overnight. Plates were thawed, a volume of 100 μl of 0.01% SDS in water was added to the wells, the plates were shaken at room temperature for 3 hours and then frozen once more at −20° C. overnight. […] Plates were shaken in the dark (at room temperature) for at least 2 hours, and fluorescence was measured on an automated 96-well Fluoroskan Ascent FI™ plate reader (Labsystems) using excitation and emission wavelengths of 360 nm and 460 nm, respectively.
Results were analyzed using the Chou and Talalay method (9) and may be interpreted as follow: Cl>1 represents an antagonist effect of beta-caryophyllene with the corresponding anticancer agent; Cl=1 represents an additive effect of beta-caryophyllene with the corresponding anticancer agent; Cl<1 represents a potentiating effect of beta-caryophyllene with the corresponding anticancer agent.

MCF-7 = experiment: Cytotoxicity of alpha-humulene and isocaryophyllene alone or combined with beta-caryophyllene; type: cell-based, human; conditions: beta-caryophyllene 2.5 to 40 μg/ml
Description: Combinations of beta-caryophyllene and two other antitumor agents, isocaryophyllene and α-humulene, were also tested as described above with some adaptations. 5×10^3 cells per well were allowed to adhere for 16 hours before treatment. The final concentration of solvent in the culture medium was maintained at 0.5% (volume/volume) to avoid toxicity. These combinations were tested on MCF-7.

[3] = paclitaxel 2 mg/kg, beta-caryophyllene 1%, i.v. days 7, 10, 13

CC[C@@]1(O)C(=O)OCc2c1cc1n(c2=O)Cc2cc3ccccc3nc2-1 [Camptothecin, camptothecin]
Potentiating activity Panc 05.04 [1]: Potentiating > IC60

CCc1c2c(nc3ccc(OC(=O)N4CCC(N5CCCCC5)CC4)cc13)-c1cc3c(c(=O)n1C2)COC(=O)[C@]3(O)CC [Irinotecan]
Potentiating activity Panc 05.04 [1]: Potentiating > IC50

C=C1CC/C=C(\C)CC[C@@H]2[C@@H]1CC2(C)C [beta-caryophyllene, (1R,4E,9S)-4-11,11-trimethyl-8-methylenebicyclo[7.2.0]undec-4-ene]
effect on tumor growth (in words) ([2]; B16 melanoma-bearing mice, i.v. days 7, 10, 13): do not significantly inhibit tumor growth
Observations: animals surviving on day 17 ([2]; male, B6D2F1, mouse, in vivo, 17 day): 08/08 animals
Treated/Control (%) on day 13 [2, 3]: 95%
Treated/Control (%) on day 14 [2, 3]: 100%
Treated/Control (%) on day 15 [2, 3]: 89%
Treated/Control (%) on day 16 [2, 3]: 91%
Treated/Control (%) on day 17 [2, 3]: 111%
Alkylating agents % (tumor cell lines; class (1) Very High): 50%
Alkylating agents Total (60) (tumor cell lines; class (1) Very High): 30
Antimitotic agents % (tumor cell lines; class (1) Very High): 60%
Antimitotic agents Total (40) (tumor cell lines; class (1) Very High): 24
RNA/DNA antimetabolites % (tumor cell lines; class (1) Very High): 30%
RNA/DNA antimetabolites Total (20) (tumor cell lines; class (1) Very High): 6
Topoisomerase II inhibitors % (tumor cell lines; class (1) Very High): 33%
Topoisomerase II inhibitors Total (40) (tumor cell lines; class (1) Very High): 13
kinase inhibitors % (tumor cell lines; class (1) Very High): 35%
kinase inhibitors Total (20) (tumor cell lines; class (1) Very High): 7
Alkylating agents % (tumor cell lines; class (2) High): 15%
Alkylating agents Total (60) (tumor cell lines; class (2) High): 9
Antimitotic agents % (tumor cell lines; class (2) High): 15%
Antimitotic agents Total (40) (tumor cell lines; class (2) High): 6
RNA/DNA antimetabolites % (tumor cell lines; class (2) High): 20%
RNA/DNA antimetabolites Total (20) (tumor cell lines; class (2) High): 4
Topoisomerase II inhibitors % (tumor cell lines; class (2) High): 18%
Topoisomerase II inhibitors Total (40) (tumor cell lines; class (2) High): 7
kinase inhibitors % (tumor cell lines; class (2) High): 30%
kinase inhibitors Total (20) (tumor cell lines; class (2) High): 6
Alkylating agents % (tumor cell lines; class (3) Moderate): 23%
Alkylating agents Total (60) (tumor cell lines; class (3) Moderate): 14
Antimitotic agents % (tumor cell lines; class (3) Moderate): 23%
Antimitotic agents Total (40) (tumor cell lines; class (3) Moderate): 9
RNA/DNA antimetabolites % (tumor cell lines; class (3) Moderate): 15%
RNA/DNA antimetabolites Total (20) (tumor cell lines; class (3) Moderate): 3
Topoisomerase II inhibitors % (tumor cell lines; class (3) Moderate): 28%
Topoisomerase II inhibitors Total (40) (tumor cell lines; class (3) Moderate): 11
kinase inhibitors % (tumor cell lines; class (3) Moderate): 20%
kinase inhibitors Total (20) (tumor cell lines; class (3) Moderate): 4
Alkylating agents % (tumor cell lines; class (4) Weak): 4%
Alkylating agents Total (60) (tumor cell lines; class (4) Weak): 2
Antimitotic agents % (tumor cell lines; class (4) Weak): 3%
Antimitotic agents Total (40) (tumor cell lines; class (4) Weak): 1
RNA/DNA antimetabolites % (tumor cell lines; class (4) Weak): 10%
RNA/DNA antimetabolites Total (20) (tumor cell lines; class (4) Weak): 2
Topoisomerase II inhibitors % (tumor cell lines; class (4) Weak): 10%
Topoisomerase II inhibitors Total (40) (tumor cell lines; class (4) Weak): 4
kinase inhibitors % (tumor cell lines; class (4) Weak): 5%
kinase inhibitors Total (20) (tumor cell lines; class (4) Weak): 1
Alkylating agents % (tumor cell lines; class (5) Additive effect): 0%
Alkylating agents Total (60) (tumor cell lines; class (5) Additive effect): 0
Antimitotic agents % (tumor cell lines; class (5) Additive effect): 0%
Antimitotic agents Total (40) (tumor cell lines; class (5) Additive effect): 0
RNA/DNA antimetabolites % (tumor cell lines; class (5) Additive effect): 0%
RNA/DNA antimetabolites Total (20) (tumor cell lines; class (5) Additive effect): 0
Topoisomerase II inhibitors % (tumor cell lines; class (5) Additive effect): 8%
Topoisomerase II inhibitors Total (40) (tumor cell lines; class (5) Additive effect): 3
kinase inhibitors % (tumor cell lines; class (5) Additive effect): 5%
kinase inhibitors Total (20) (tumor cell lines; class (5) Additive effect): 1
Alkylating agents % (tumor cell lines; class (6) Antagonist effect): 7%
Alkylating agents Total (60) (tumor cell lines; class (6) Antagonist effect): 4
Antimitotic agents % (tumor cell lines; class (6) Antagonist effect): 0%
Antimitotic agents Total (40) (tumor cell lines; class (6) Antagonist effect): 0
RNA/DNA antimetabolites % (tumor cell lines; class (6) Antagonist effect): 25%
RNA/DNA antimetabolites Total (20) (tumor cell lines; class (6) Antagonist effect): 5
Topoisomerase II inhibitors % (tumor cell lines; class (6) Antagonist effect): 5%
Topoisomerase II inhibitors Total (40) (tumor cell lines; class (6) Antagonist effect): 2
kinase inhibitors % (tumor cell lines; class (6) Antagonist effect): 5%
kinase inhibitors Total (20) (tumor cell lines; class (6) Antagonist effect): 1
drugs exhibiting a potentiating effect when combined (tumor cell lines; drugs tested at their IC50 values): 91%
effect on anticancer activity of alpha-humulene and isocaryophyllene (MCF-7): increases significantly anticancer activity
